# According to patent US6861409B2, “Growth hormone secretagogues” (Zentaris AG, priority 2000, dated 2005):
# Square brackets hold non-standard residues; d marks the D form. Peptide text beside a SMILES is read from it. dTrp(2-Me) = Cc1[nH]c2ccccc2c1C[C@@H](N)C(=O)O
# Test system: plasma GH concentrations
# Assay: Growth hormone releasing activity in the infant rat (plasma GH by RIA)
# Type: in vivo, Sprague Dawley rats
# Conditions: male 10-day-old rats, 300 μg/kg subcutaneously, plasma 15 min later
# Procedure: Male 10-day-old Sprague Dawley rats, about 25 g body weight were used.
# One hour before the experiments, pups were separated from their respective dams and were divided randomly into groups of eight each.
# Pups were acutely challenged subcutaneously with 100 μl of solvent (DMSO, final dilution 1:300 in physiological saline), hexarelin (Tyr-Ala-His-D-Mrp-Ala-Trp-D-Phe-Lys-NH2, used as a reference drug), or new compounds (300 μg/kg) and killed by decapitation 15 min later.
# Trunk blood was collected and centrifuged immediately. Plasma samples were stored at −20° C. until assayed for the determination of plasma GH concentrations.
# Growth hormone concentrations in plasma were measured by RIA using materials provided by the National Institute of Diabetes, Digestive and Kidney Diseases (NIDDK) of the National Institute of Health U.S.A.
# Values were expressed in terms of the NIDDK-rat-GH-RP-2 standard (potency 21 U/mg) as ng/ml of plasma.
# The minimum detectable value of rat GH was about 1.0 ng/ml, and intraassay variability was about 6%.
molecule,measurement,setting,value
"CCNC(=O)NC(Cc1c[nH]c2ccccc12)NC(=O)C(Cc1c[nH]c2ccccc12)NC(=O)C(C)(C)N (centres unmarked) [Example 58, H-Aib-(D)-Trp-(D)-gTrp-C(O)NHCH2CH3]",GH,Table 10 test series,376.48 ± 43.24 ng/mL
"Cc1[nH]c2ccccc2c1C[C@@H](NC(=O)[C@@H](N)Cc1cnc[nH]1)C(=O)N[C@@H](C)C(=O)N[C@@H](Cc1c[nH]c2ccccc12)C(=O)N[C@H](Cc1ccccc1)C(=O)N[C@@H](CCCCN)C(N)=O [HEXARELIN, Tyr-Ala-His-D-Mrp-Ala-Trp-D-Phe-Lys-NH2, reference compound] (H-H[dTrp(2-Me)]AW[dF]K-NH2)",GH,Table 1 test series,202 ± 32.7 ng/mL
same,GH,Table 2 test series,134.5 ± 27.2 ng/mL
same,GH,Table 3 test series,114.7 ± 8.4 ng/mL
same,GH,Table 4 test series,114.5 ± 12.9 ng/mL
same,GH,Table 5 test series,276.01 ± 23.5 ng/mL
same,GH,Table 6 test series,91.61 ± 4.09 ng/mL
same,GH,Table 7 test series,172.5 ± 38.53 ng/mL
same,GH,Table 8 test series,172.5 ± 38.53 ng/mL
same,GH,Table 9 test series,89.91 ± 3.04 ng/mL
same,GH,Table 10 test series,172.5 ± 38.53 ng/mL
"O=CNC(Cc1c[nH]c2ccccc12)NC(=O)C(Cc1c[nH]c2ccccc12)NC(=O)C1CCNCC1 [Example 8, Isonipecotyl-D-Trp-D-gTrp-CHO]",GH,Table 3 test series,94.2 ± 8.6 ng/mL
"CC(=O)NC(Cc1c[nH]c2ccccc12)NC(=O)C(Cc1c[nH]c2ccccc12)NC(=O)C1CCNCC1 [Example 9, Isonipecotyl-D-Trp-D-gTrp-C(O)CH3]",GH,Table 3 test series,61.2 ± 10.8 ng/mL
"CCNC(=O)NC(Cc1c[nH]c2ccccc12)NC(=O)C(Cc1c[nH]c2ccccc12)NC(=O)C(C)(C)NC (centres unmarked) [Example 59, N-Me-Aib-(D)-Trp-(D)-gTrp-C(O)NHCH2CH3]",GH,Table 10 test series,179.53 ± 24.65 ng/mL
H-Aib-D-Trp-N-Me-D-gTip-C(O)CH3 [Example 41],GH,Table 4 test series,75.4 ± 15.0 ng/mL
H-Aib-(D)-3(R/S)-Dht-g-(D)-Trp-formyl [Example 49],GH,Table 6 test series,24.35 ± 4.85 ng/mL
"CN(C)C(C)(C)C(=O)NC(Cc1c[nH]c2ccccc12)C(=O)NC(Cc1c[nH]c2ccccc12)NC=O (centres unmarked) [Example 52, N(Me)2-Aib-(D)-Trp-(D)-gTrp-formyl]",GH,Table 7 test series,121.43 ± 29 ng/mL
"CC(C)(N)C(=O)NC(C)(Cc1c[nH]c2ccccc12)C(=O)NC(Cc1c[nH]c2ccccc12)NC=O [Example 60, H-Aib-(R)—Me-Trp-(D)-gTrp-formyl]",GH,Table 8 test series,21.02 ± 3.43 ng/mL
"CC(C)(N)C(=O)NC(Cc1c[nH]c2ccccc12)C(=O)NC(Cc1c[nH]c2ccccc12)NC=O (centres unmarked) [Example 13, H-Aib-(D)-Trp-gTrp-CHO]",GH,Table 1 test series,58 ± 6.3 ng/mL
"CC(=O)NC(Cc1c[nH]c2ccccc12)NC(=O)C(Cc1c[nH]c2ccccc12)NC(=O)C(C)(C)N(C)C (centres unmarked) [Example 53, N(Me)2-Aib-(D)-Trp-(D)-gTrp-acetyl]",GH,Table 7 test series,26.80 ± 5.64 ng/mL
"CC(C)(N)C(=O)NC(Cc1ccc2ccccc2c1)C(=O)NC(Cc1ccc2ccccc2c1)NC=O (centres unmarked) [Example 43, H-Aib-(D)-2-Nal-g-(D)-2-Nal-formyl]",GH,Table 5 test series,37.33 ± 19.74 ng/mL
"CC(C)(N)C(=O)NC(Cc1c[nH]c2ccccc12)C(=O)NC(Cc1ccc2ccccc2c1)NC=O [Example 47, H-Aib-D-Trp-g-D-2-Nal-formyl]",GH,Table 5 test series,9.04 ± 04.03 ng/mL
"CC(C)(N)C(=O)NC(Cc1c[nH]c2ccccc12)C(=O)NC(Cc1c[nH]c2ccccc12)NC(=O)C1CCNCC1 [Example 22, Aib-D-Trp-gTrp-CO-piperidin-4-yl]",GH,Table 3 test series,153.6 ± 30.6 ng/mL
